According to patent publication US4386094A, “4-Lower alkyl-3-phenoxypyridine-1-oxide and a method for its production” (priority 1980, dated 1983):
Read-outs that look alike come from different tables or passages of the source.

Tests used:
[1] = Rotorod toxicity test (Tox), rats; format: in vivo; details: for TD50: rat, in vivo, po
[2] = tested on: Pentylenetetrazol (Metrazol) seizure; assay: sc Met--Subcutaneous Pentylenetetrazol (Metrazol) Seizure Threshold Test, mice; format: in vivo, male Carworth Farms No. 1 mice; details: for ED50 sc Met: intraperitoneal
Experimental: (§1) The utility of the aforementioned compound as an anticonvulsant is determined by generating a compound profile using three tests. The tests employed are described in Epilepsia 19 (1978) 409-428 which is incorporated by reference.
The tests were performed by the National Institute of Neurological and Communicative Disorders and Stroke and used male Carworth Farms No. 1 mice. The compounds are employed at at least 3 dose levels (30, 100, 300 mg/kg) in the following three tests.
sc Met--Subcutaneous Pentylenetetrazol (Metrazol®) Seizure Threshold Test
(§2) The animal is observed for 30 minutes. Failure to observe even a threshold seizure (a single episode of clonic spasms of at least 5 sec duration) is defined as protection and the results are expressed as: […]
(§3) number of animals protected/number of animals tested.

Bicuculline = Bicuculline test, mice; format: in vivo
[3] = Rotorod toxicity test (Tox), mice; format: in vivo, male Carworth Farms No. 1 mice
Experimental: The Rotorod test is used to evaluate neurotoxicity. The animal is placed on a 1 inch diameter knurled plastic rod rotating at 6 rpm. Normal mice can remain on a rod rotating at this speed indefinitely. Neurologic toxicity is defined as the failure of the animal to remain on the rod for 1 minute, and is expressed as:

[4] = tested on: Maximal electroshock seizures; assay: MES--Maximal Electroshock Seizure Test, mice; format: in vivo, male Carworth Farms No. 1 mice; details: Mus musculus
Text: Maximal electroshock seizures are elicited with a 60 cycle alternating current of 50 mA intensity (5-7 times that necessary to elicit minimal electroshock seizures) delivered for 0.2 sec via corneal electrodes. A drop of 0.9% saline is instilled in the eye prior to application of the electrodes in order to prevent the death of the animal. Abolition of the hind limb tonic extension component of the seizure is defined as protection and results are expressed as:

[5] = tested on: Maximal electroshock seizures; assay: MES--Maximal Electroshock Seizure Test, rats; format: in vivo; details: Rattus norvegicus, oral
Experimental: The utility of the aforementioned compound as an anticonvulsant is determined by generating a compound profile using three tests. The tests employed are described in Epilepsia 19 (1978) 409-428 which is incorporated by reference. Maximal electroshock seizures are elicited with a 60 cycle alternating current of 50 mA intensity (5-7 times that necessary to elicit minimal electroshock seizures) delivered for 0.2 sec via corneal electrodes. A drop of 0.9% saline is instilled in the eye prior to application of the electrodes in order to […]. Abolition of the hind limb tonic extension component of the seizure is defined as protection and results are expressed as: number of animals protected/number of animals tested.

Picrotoxin = Picrotoxin test, mice; format: in vivo; details: intraperitoneal
Strychnine = Strychnine test, mice; format: in vivo; details: intraperitoneal
[6] = tested on: Pentylenetetrazol (Metrazol) seizure; assay: sc Met--Subcutaneous Pentylenetetrazol (Metrazol) Seizure Threshold Test, rats; format: in vivo; details: oral
Experimental: as §1, §2, §3

[7] = rat, in vivo, po; cited from earlier work
[8] = mouse, in vivo, po; cited from earlier work

SMILES	TD50 [1] [mg/kg]	ED50 sc Met [2]	sc Met-ED50 ([2]; oral)	ED50 Bicuculline (Bicuculline; intraperitoneal, mice)	ED50 ([4]; oral, read-out: MES-ED50) [mg/kg]	ED50 [5] [mg/kg]	ED50 Picrotoxin (Picrotoxin)	sc Met-ED50 [6]	other results
Cc1cc[n+]([O-])cc1Oc1ccccc1 [4-METHYL-3-PHENOXYPYRIDINE-1-OXIDE, 4-methyl-3-phenoxypyridine-1-oxide]	76.1	Potentiates	Potentiates	Potentiates	85.3	11.2	Potentiates	Potentiates	TD50 ([3]; mouse, in vivo, ip): 76.2 mg/kg; TD50 ([3]; mouse, in vivo, po): 296 mg/kg; ED50 ([4]; ip, intraperitoneal, read-out: ED50 MES): 23.2 mg/kg; ED50 Strychnine (Strychnine): Ineffective
NC(=O)N1c2ccccc2C=Cc2ccccc21 [CARBAMAZEPINE]		Potentiates				8.5		Variable	ROTOROD TD50 ([1]; oral, rats): 813.06 mg/kg; Max. Prot. (Bicuculline) (Bicuculline; intraperitoneal, mice, at 50-130 mg/kg): 62.5%
CCC1(c2ccccc2)NC(=O)N(C)C1=O (stereo not drawn) [MEPHENYTOIN]					37	10			ROTOROD TD50 [7]: 143 mg/kg; ED50 ([2]; Mus musculus, oral): 53 mg/kg; ED50 (Bicuculline; Mus musculus, ip, read-out: ED50 Bicuculline): 124 mg/kg; TD50 ([3]; intraperitoneal, mice): 153.82 mg/kg; ROTOROD TD50 [8]: 97.0 mg/kg; Max. Prot. (Strychnine) (Strychnine; at 70-150 mg/kg): 50%; ED50 ([6]; Rattus norvegicus): 105 mg/kg
O=C1NC(=O)C(c2ccccc2)(c2ccccc2)N1 [PHENYTOIN]	> 3000	Potentiates	Ineffective	Potentiates			Potentiates	Ineffective	Max. Prot. (Strychnine) (Strychnine; at 55-100 mg/kg): 50%
